Where a name gives a salt, the structure may show the parent alone.
Molecular target: T1, Axl (Homo sapiens, UniProt P30530)
T1 construct: endogenous in cells; host or cells: HeLa cells
T1 sequence (P30530 26-894): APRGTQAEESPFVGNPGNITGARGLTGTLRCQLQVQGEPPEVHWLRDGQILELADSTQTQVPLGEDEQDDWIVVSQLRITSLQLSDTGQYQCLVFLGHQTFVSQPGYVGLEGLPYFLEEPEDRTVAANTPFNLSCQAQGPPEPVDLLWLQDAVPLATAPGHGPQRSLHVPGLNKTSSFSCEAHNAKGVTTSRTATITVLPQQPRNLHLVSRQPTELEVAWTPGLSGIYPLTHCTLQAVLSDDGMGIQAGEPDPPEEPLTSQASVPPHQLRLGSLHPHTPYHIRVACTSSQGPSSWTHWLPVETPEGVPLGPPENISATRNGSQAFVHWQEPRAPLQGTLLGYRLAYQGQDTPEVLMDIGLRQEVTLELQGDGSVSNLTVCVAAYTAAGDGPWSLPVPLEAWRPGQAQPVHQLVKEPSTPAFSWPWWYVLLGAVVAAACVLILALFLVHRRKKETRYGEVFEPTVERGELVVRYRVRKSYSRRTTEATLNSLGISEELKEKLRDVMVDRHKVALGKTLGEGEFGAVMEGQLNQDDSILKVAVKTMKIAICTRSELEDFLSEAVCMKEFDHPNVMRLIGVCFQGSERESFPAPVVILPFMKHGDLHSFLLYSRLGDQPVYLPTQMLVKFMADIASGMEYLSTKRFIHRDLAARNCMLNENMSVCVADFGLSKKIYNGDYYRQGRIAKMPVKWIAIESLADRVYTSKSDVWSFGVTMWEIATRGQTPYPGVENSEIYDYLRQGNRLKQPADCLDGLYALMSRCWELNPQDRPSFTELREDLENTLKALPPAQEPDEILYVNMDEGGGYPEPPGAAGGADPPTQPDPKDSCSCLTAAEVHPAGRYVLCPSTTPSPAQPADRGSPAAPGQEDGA
Test: Phospho-Akt in-cell Western assay (inhibition of Axl activity)
Type: cell-based
Method: The compounds of the invention were tested in the following assay for their ability to inhibit Axl activity.
Phospho-Akt in-Cell Western Assay
• Cell culture plate: 96 well assay plate (Corning 3610), white, clear bottom, tissue-culture treated. • Cells: Hela cells. • Starvation medium: For Axl stimulation: 0.5% FCS (fetal calf serum) in DMEM, plus Axl/Fc (extracellular domain of AXL fused to immunoglobulin Fc region) (R&D, 154-AL) 500 ng/mL. • For EGF (epidermal growth factor) stimulation: 0.5% FCS in DMEM (Dulbecco's modified Eagles medium). • Poly-L-Lysine 0.01% solution (the working solution): 10 μg/ml, dilute In PBS (phosphate buffered saline). • Axl antibody cross-linking: • 1st: Mouse anti-Axl (R&D, MAB154). • 2nd: Biotin-SP-conjugated AffiniPure goat anti-mouse IgG (H+L) (Jackson ImmunoResearch #115-065-003). • Fixing buffer: 4% formaldehyde in PBS. • Wash buffer: 0.1% TritonX-100 in PBS. • Quenching buffer: 3% H2O2, 0.1% Azide in wash buffer, Azide and hydrogen peroxide (H2O2) are added fresh. • Blocking buffer: 5% BSA in TBST (tris buffered saline plus 0.1% Tween 20). • Primary antibody: Rabbit anti-human Phospho-Akt antibody (Cell Signaling 9271): 1×250 diluted in blocking buffer. • Secondary antibody: HRP (horse radish peroxidase)-conjugated Goat anti-Rabbit secondary, stock solution: Jackson ImmunoResearch (Goat anti-Rabbit HRP, #111-035-144) 1:1 diluted in glycerol, store at −20° C. The working solution: 1×2000 dilution of stock in blocking buffer. • Chemiluminescent working solution (Pierce, 37030): SuperSignal ELISA (enzyme linked immunosorbant assay) Pico Chemiluminescent substrate. • Crystal Violet solution: Stock: 2.5% Crystal violet in methanol, filtered and kept at ambient temperature. The working solution: dilute the stock 1:20 with PBS immediately before use. • 10% SDS: working solution: 5% SDS (sodium dodecylsulfate), diluted in PBS Methods: Day 1:
A 96 well TC (tissue culture treated) plate was coated with 10 μg/mL poly-L-Lysine at 37° C. for 30 min, washed twice with PBS, and air-dried for 5 minutes before cells were added. Hela cells were seeded at 10,000 cells/well and the cells were starved in 100 μL starvation medium containing Axl/Fc for 24 hrs.
The cells were pre-treated with test compounds by adding 100 μL of 2× test compound to the starvation medium on the cells. The cells were incubated at 37° C. for 1 hr before stimulation.
The cells were stimulated by Axl-antibody cross-linking as follows: A 5×1st/2nd Axl antibody mixture was made (37.5 μg/mL 1st/100 μg/mL 2nd) in starvation medium and nutated at 4° C. with thorough mixing for 1-2 hours for clustering. The resulting mix was warmed to 37° C. 50 μL of 5× Axl 1st/2nd of antibody cluster was added to the cells and the cells were incubated at 37° C. for 5 min.
After 5 minutes stimulation, the plate was flicked to remove medium and the plate was tapped onto paper towels. Formaldehyde (4.0% in PBS, 100 μL) was added to fix the cells and the cells were incubated at ambient temperature for 20 min without shaking.
The cells were washed with a plate washer buffer to remove the formaldehyde solution. The plate was flicked to removed excess wash buffer and tapped onto paper towels. Quenching buffer (100 μL) was added to each well and the cells were incubated at ambient temperature for 20 minutes without shaking.
The cells were washed with a plate washer buffer to remove the quenching buffer. Blocking buffer (100 μL) was added and the cells were incubated at ambient temperature for at least an hour with gentle shaking.
The cells were washed with a plate washer buffer and diluted primary antibody (50 μL) was added to each well (blocking buffer was added to the negative control wells instead). The plates were incubated overnight at 4° C. with gentle shaking.
The wash buffer was removed, diluted secondary antibody (100 μL) was added, and the cells were incubated at ambient temperature for 1 hour with gentle shaking. […]

[1] = inhibition of Axl activity, Table 1
[2] = Table 7, Hela cells, Axl antibody cross-linking stimulation, phospho-Akt chemiluminescence

Row | SMILES | IC50 [2] [nM] | other results
1 | CC(C)Oc1ccc(C(=O)n2nc(Nc3ccc(OCCN4CCCC4)cc3)nc2N)cc1 [(Ia-2), 5-amino-1-(4-(iso-propoxy)phenyl)carbonyl-3-[4-[2-(pyrrolidin-1-yl)ethoxy]phenylamino]-1H-1,2,4-triazole] | – | IC50 (inhibition of Axl activity, phospho-Akt in-cell Western assay, Table 1): < 1000 nM
2 | Cc1ccc(C(=O)n2nc(Nc3ccc(O)cc3)nc2N)cc1 [(Ia-4), 5-amino-3-[4-(hydroxy)phenylamino]-1-(4-methylphenyl)carbonyl-1H-1,2,4-triazole] | – | IC50 [1]: > 20000 nM
3 | Cc1ccccc1C(=O)n1nc(Nc2cccc(O)c2)nc1N [(Ia-6), 5-amino-3-[3-(hydroxy)phenylamino]-1-(2-(methyl)phenyl)carbonyl-1H-1,2,4-triazole] | – | IC50 [1]: > 20000 nM
4 | Cc1cccc(C(=O)n2nc(Nc3cccc(O)c3)nc2N)c1 [(Ia-7), 5-amino-3-[3-(hydroxy)phenylamino]-1-(3-(methyl)phenyl)carbonyl-1H-1,2,4-triazole] | – | IC50 [1]: 1000 to 10000 nM
5 | Cc1ccc(C(=O)n2nc(Nc3cccc(O)c3)nc2N)cc1 [(Ia-15), 5-amino-3-[3-(hydroxy)phenylamino]-1-(4-(methyl)phenyl)carbonyl-1H-1,2,4-triazole] | – | IC50 [1]: 10000 to 20000 nM
6 | CC(C)Oc1ccc(C(=O)n2nc(Nc3cccc(OCC#N)c3)nc2N)cc1 [(Ia-21), 5-amino-3-[3-(cyanomethoxy)phenylamino]-1-(4-(iso-propoxy)phenyl)carbonyl-1H-1,2,4-triazole] | – | IC50 [1]: 1000 to 10000 nM
7 | Nc1nc(Nc2cccc(OCCN3CCOCC3)c2)nn1C(=O)c1ccccc1 [(Ia-26), 5-amino-3-[3-[2-(morpholin-4-yl)ethoxy]phenylamino]-1-phenylcarbonyl-1H-1,2,4-triazole, hydrogen chloride salt] | – | IC50 [1]: > 20000 nM
8 | Cc1cccc(NC(=O)n2nc(Nc3ccc(OCCN4CCCCC4)cc3)nc2N)c1 [compound 29, 5-amino-N-(3-methylphenyl)-3-[4-[2-(piperidin-1-yl)ethoxy]phenylamino]-1H-1,2,4-triazole-1-carboxamide] | < 1000 | –
9 | Cc1cccc(NC(=O)n2nc(Nc3ccc(OCCN4CCCC4)cc3)nc2N)c1 [compound 31, 5-amino-N-(3-methylphenyl)-3-[4-[2-(pyrrolidin-1-yl)ethoxy]phenylamino]-1H-1,2,4-triazole-1-carboxamide] | < 1000 | –
10 | COc1cc(NC(=O)n2nc(Nc3ccc(OCCN4CCCC4)cc3)nc2N)cc(OC)c1 [compound 34, 5-amino-N-(3,5-(dimethoxy)phenyl)-3-[4-[2-(pyrrolidin-1-yl)ethoxy]phenylamino]-1H-1,2,4-triazole-1-carboxamide] | < 1000 | –
11 | Nc1nc(Nc2ccc(OCCN3CCCCC3)cc2)nn1C(=O)Nc1ccc2c(c1)OCO2 [compound 35, 5-amino-N-(1,3-benzodioxol-5-yl)-3-[4-[2-(piperidin-1-yl)ethoxy]phenylamino]-1H-1,2,4-triazole-1-carboxamide] | 1000 to 10000 | –
12 | Cc1ccc(NC(=O)n2nc(Nc3ccc(OCCN4CCCC4)cc3)nc2N)cc1 [compound 37, 5-amino-N-(4-methylphenyl)-3-[4-[2-(pyrrolidin-1-yl)ethoxy]phenylamino]-1H-1,2,4-triazole-1-carboxamide] | 1000 to 10000 | –
13 | Cc1ccc(NC(=O)n2nc(Nc3ccc(OCCN4CCCCC4)cc3)nc2N)cc1C [compound 38, 5-amino-N-(3,4-(dimethyl)phenyl)-3-[4-[2-(piperidin-1-yl)ethoxy]phenylamino]-1H-1,2,4-triazole-1-carboxamide] | 1000 to 10000 | –
14 | Nc1nc(Nc2ccc(OCCN3CCCCC3)cc2)nn1C(=O)NC1CCCCC1 [compound 42, 5-amino-N-cyclohexyl-3-[4-[2-(piperidin-1-yl)ethoxy]phenylamino]-1H-1,2,4-triazole-1-carboxamide] | 1000 to 10000 | –

The next lines start with results.

Row | IC50 [2] [nM] | SMILES | other results
15 | < 1000 | COc1cccc(NC(=O)n2nc(Nc3ccc(OCCN4CCCCC4)cc3)nc2N)c1 [compound 30, 5-amino-N-(3-methoxyphenyl)-3-[4-[2-(piperidin-1-yl)ethoxy]phenylamino]-1H-1,2,4-triazole-1-carboxamide] | –
16 | < 1000 | COc1cccc(NC(=O)n2nc(Nc3ccc(OCCN4CCCC4)cc3)nc2N)c1 [compound 32, 5-amino-N-(3-methoxyphenyl)-3-[4-[2-(pyrrolidin-1-yl)ethoxy]phenylamino]-1H-1,2,4-triazole-1-carboxamide] | –
17 | < 1000 | COc1cc(NC(=O)n2nc(Nc3ccc(OCCN4CCCCC4)cc3)nc2N)cc(OC)c1 [compound 33, 5-amino-N-(3,5-(dimethoxy)phenyl)-3-[4-[2-(piperidin-1-yl)ethoxy]phenylamino]-1H-1,2,4-triazole-1-carboxamide] | –
18 | 1000 to 10000 | Nc1nc(Nc2ccc(OCCN3CCCC3)cc2)nn1C(=O)Nc1ccc2c(c1)OCO2 [compound 36, 5-amino-N-(1,3-benzodioxol-5-yl)-3-[4-[2-(pyrrolidin-1-yl)ethoxy]phenylamino]-1H-1,2,4-triazole-1-carboxamide] | –
19 | 1000 to 10000 | Cc1ccc(NC(=O)n2nc(Nc3ccc(OCCN4CCCCC4)cc3)nc2N)cc1 [compound 39, 5-amino-N-(4-methylphenyl)-3-[4-[2-(piperidin-1-yl)ethoxy]phenylamino]-1H-1,2,4-triazole-1-carboxamide] | –
20 | 1000 to 10000 | COc1ccc(NC(=O)n2nc(Nc3ccc(OCCN4CCCCC4)cc3)nc2N)cc1 [compound 40, 5-amino-N-(4-(methoxy)phenyl)-3-[4-[2-(piperidin-1-yl)ethoxy]phenylamino]-1H-1,2,4-triazole-1-carboxamide] | –
21 | 1000 to 10000 | CC(C)c1ccc(NC(=O)n2nc(Nc3ccc(OCCN4CCCCC4)cc3)nc2N)cc1 [compound 41, 5-amino-N-(4-(iso-propyl)phenyl)-3-[4-[2-(piperidin-1-yl)ethoxy]phenylamino]-1H-1,2,4-triazole-1-carboxamide] | –
22 | 1000 to 10000 | COc1ccc(NC(=O)n2nc(Nc3ccc(OCCN4CCCCC4)cc3)nc2N)cc1OC [compound 43, 5-amino-N-(3,4-(dimethoxy)phenyl)-3-[4-[2-(piperidin-1-yl)ethoxy]phenylamino]-1H-1,2,4-triazole-1-carboxamide] | –

Source: US8389557B2, “Triazole derivatives useful as Axl inhibitors” (Rigel Pharmaceuticals, Inc., priority 2005, dated 2013)
